The record followed here is article PMC7997574, “Lead Optimization of Benzoxazolone Carboxamides as Orally Bioavailable and CNS Penetrant Acid Ceramidase Inhibitors” (Journal of Medicinal Chemistry, 2020).

In one data set the target is T1, AC (Homo sapiens, UniProt Q13510).
T1 sequence (Q13510 22-395): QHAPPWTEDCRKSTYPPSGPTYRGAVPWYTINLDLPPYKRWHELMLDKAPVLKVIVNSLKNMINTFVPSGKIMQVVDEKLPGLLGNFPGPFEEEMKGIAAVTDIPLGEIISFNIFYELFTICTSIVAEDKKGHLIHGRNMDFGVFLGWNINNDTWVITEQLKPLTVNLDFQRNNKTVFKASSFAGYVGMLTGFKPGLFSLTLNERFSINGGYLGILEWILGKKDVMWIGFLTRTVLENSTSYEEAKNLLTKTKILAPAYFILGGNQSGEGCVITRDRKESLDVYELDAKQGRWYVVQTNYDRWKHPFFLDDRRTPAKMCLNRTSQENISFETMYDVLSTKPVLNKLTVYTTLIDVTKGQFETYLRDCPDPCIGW
Description: Fluorogenic hAC assay on hAC-enriched lysate of HEK293 cells. It counts as biochemical. Set-up: expressed in transfected cells. The procedure: HEK293 cells stably expressing hAC were grown in Dulbecco’s modified Eagle medium (DMEM) containing 10% FBS, 1% glutamine, 1 mM sodium pyruvate, and 500 μg mL^–1 G418. Cells were harvested, and pellets were stored at −80 °C until lysosomal-enriched lysate preparation. Cells were suspended in 20 mM Tris HCl (pH 7.5) with 0.32 M sucrose, sonicated, and centrifuged at 800 × g for 30 min at 4 °C. Supernatants were then centrifuged at 12000 × g for 30 min at 4 °C. Pellets were resuspended in PBS (pH 7.4) and subjected to three freeze–thaw cycles at −80 °C. The suspension was finally centrifuged at 105000 × g for 1 h at 4 °C, and protein concentration was measured in the supernatant with the bicinchoninic acid based protein assay. This hAC-enriched preparation allowed us to further optimize the enzymatic assay and to use small amounts of lysate (2 μg per well) at a 5 μM substrate (Rbm14–12) around its KM (KM = 5.0 μM).
The assay was performed in Optiplate 96-well black plates, with each reaction well containing a mixture of 25 mM NaOAc buffer (pH 4.5) and a fixed amount of protein (2 μg) in a volume of 85 μL. After 10 min of preincubation with test compounds (diluted 20× from DMSO stock solutions at different concentrations), the fluorogenic probe was added (diluted 40× from EtOH stock solution, final concentration 5 μM). After 3 h of incubation at 37 °C, reactions were stopped with 50 μL of MeOH and 100 μL of a 2.5 mg mL^–1 NaIO4 fresh solution in 100 mM glycine/NaOH buffer (pH 10.6). The plates were further incubated for 2 h at 37 °C in the dark, and fluorescence intensities were measured at excitation/emission wavelengths of 355/460 nm. Negative control samples consisted of the same incubation mixture in the absence of protein-enriched extracts. Data were plotted as a function of compound concentrations. IC50 values were calculated by nonlinear regression analysis using GraphPad Prism 5 (GraphPad Software Inc., CA, USA) applying a standard slope curve fitting. The reported IC50 values are the mean of at least three independent experiments performed in three technical replicates.

Data set [1] in a line: In vitro plasma stability study. The settings on record: mouse plasma; read-out: m-plasma t1/2. The class given is in vitro ADME. Here is the method:
Freshly prepared 10 mM MeCN stock solution of test compound was diluted 50-fold with DMSO/H2O (1:1) and incubated at 37 °C for 2 h with mouse plasma added in 5% DMSO (preheated at 37 °C for 10 min). The final concentration was 2 μM. At each time point (0, 5, 15, 30, 60, and 120 min), 50 μL of incubation mixture was diluted with 200 μL of cold MeCN spiked with 200 nM internal standard followed by centrifugation at 3300 × g for 20 min. The supernatant was further diluted with H2O (1:1) for analysis. The concentration of test compound was quantified by LC/MS/MS on a Waters ACQUITY UPLC/MS TQD system consisting of a TQD MS equipped with an ESI interface. The analyses were run on an ACQUITY UPLC BEH C18 (50 × 2.1 mm ID, particle size 1.7 μm) with a VanGuard BEH C18 precolumn (5 × 2.1 mm ID, particle size 1.7 μm) at 40 °C. For each compound, the appropriate mobile phase was chosen. ESI was applied in positive mode. The response factors, calculated on the basis of the internal standard peak area, were plotted over time. When possible, response vs time profiles were fitted with Prism (GraphPad Software, Inc., USA) to estimate compound t1/2 in plasma. Values are the mean of at least two independent experiments performed in two technical replicates.

Data set [2] is described as follows: Aqueous kinetic solubility assay. The class given is physicochemical. The following applies: PBS, pH 7.4. The procedure:
The aqueous kinetic solubility was determined from a 10 mM MeCN stock solution of test compound in Phosphate-Buffered Saline (PBS) at pH 7.4. The study was performed by incubation of an aliquot of 10 mM MeCN stock solution in PBS (pH 7.4) at a target concentration of 250 μM. The incubation was carried out under shaking at 25 °C for 1 h followed by centrifugation at 21100 × g for 30 min. The supernatant was analyzed by UPLC/MS for the quantification of the dissolved compound (in μM) by UV at a specific wavelength (215 nm). […] The UPLC/MS analyses were performed on a Waters ACQUITY UPLC/MS system consisting of a single quadrupole detector (SQD) Mass Spectrometer (MS) equipped with an Electrospray Ionization (ESI) interface and a Photodiode Array Detector (PDA). The PDA range was 210–400 nm. ESI in positive mode was used in the mass scan range of 100–650 Da. The analyses were run on an ACQUITY UPLC BEH C18 column (50 × 2.1 mm ID, particle size 1.7 μm) with a VanGuard BEH C18 precolumn (5 × 2.1 mm ID, particle size 1.7 μm), using 10 mM NH4OAc in H2O at pH 5 adjusted with AcOH (A) and 10 mM NH4OAc in MeCN/H2O (95:5) at pH 5 (B) as the mobile phase. Values are reported as mean values of ≥2 experiments performed.

A short description of data set [3]: In vitro microsomal stability study. The settings on record: mouse liver microsomes; for half-life at 1 h, 4.6 µM / half-life at 4.6 μM: pH 7.4, read-out: m-LM t1/2. It counts as in vitro ADME. Here is the method:
Freshly prepared 10 mM MeCN stock solution of test compound was preincubated at 37 °C for 15 min with mouse liver microsomes added in 0.1 M Tris HCl buffer (pH 7.4). The final concentration was 4.6 μM. After preincubation, the cofactors (NADPH, G6P, G6PDH, and MgCl2 predissolved in 0.1 M Tris HCl) were added to the incubation mixture, and the incubation was continued at 37 °C for 1 h. At each time point (0, 5, 15, 30, and 60 min), 30 μL of incubation mixture was diluted with 200 μL of cold MeCN spiked with 200 nM internal standard followed by centrifugation at 3300 × g for 15 min. The supernatant was further diluted with H2O (1:1) for analysis. The concentration of the test compound was quantified by LC/MS/MS on a Waters ACQUITY UPLC/MS TQD system consisting of a TQD MS equipped with an ESI interface. The analyses were run on an ACQUITY UPLC BEH C18 (50 × 2.1 mm ID, particle size 1.7 μm) with a VanGuard BEH C18 precolumn (5 × 2.1 mm ID, particle size 1.7 μm) at 40 °C. For each compound, the appropriate mobile phase was chosen. ESI was applied in positive mode. The percentage of test compound remaining at each time point relative to t = 0 was calculated. t1/2 was determined by a one-phase decay equation using a nonlinear regression of compound concentration vs time. Values are the mean of at least two independent experiments performed in two technical replicates.

The nature of data set [4]: Chemical stability assay in PBS pH 7.4. The class given is physicochemical. The following applies: phosphate-buffered saline; PBS, pH 7.4; read-out: chemical stability t1/2. The procedure: Chemical stability of selected compounds was evaluated under physiological pH conditions (0.01 M phosphate-buffered saline, pH 7.4) for up to 8 h. The buffer was added with 10% MeCN. Stock solutions of each compound (10 mM) were freshly prepared in MeCN. Each compound was incubated at a final concentration of 1 μM in preheated buffer (37 °C). The sample solutions were divided into aliquots in glass vials (preheated at 37 °C) for each time point. The samples were maintained at 37 °C in the UPLC/MS autosampler during the study (no shaking). A reference solution of each compound (final concentration: 1 μM) in preheated MeCN was prepared from the stock solutions and maintained at 37 °C in the UPLC/MS autosampler during the study. For each time point, the samples were analyzed directly by LC/MS without any further sample preparation. The samples were analyzed by integrating the corresponding MRM peak areas. The relative compound concentration was calculated by dividing the peak area at each time point by the peak area at t = 0 min. The reference solution was analyzed at the beginning (t = 0 min) and at the end of the study (t = 8 h). The apparent half-life (t1/2) of the disappearance of the compound was calculated using the best fitting equation by GraphPad Prism (GraphPad Software, Inc., USA). The analyses were performed on a Waters ACQUITY UPLC/MS TQD system consisting of a triple quadrupole detector (TQD) MS equipped with an ESI interface and a photodiode array detector. The analyses were run on an ACQUITY UPLC BEH C18 1.7 μm 2.1 × 50 mm column with a VanGuard BEH C18 1.7 μm preolumn at 40 °C. For each compound, the appropriate mobile phase was chosen. ESI was applied in positive mode. Values are the mean of at least two independent experiments performed in two technical replicates.

Setting [5] is: hAC expressed in HEK-293 cells, read-out: hAC IC50 (μM)±SD.

≈ marks a conversion by molar mass, not a printed value. Read-outs that look alike come from different tables or passages of the source.

Take `CN1CCC(c2ccc3c(c2)oc(=O)n3C(=O)NCCCCc2ccccc2)CC1` [22e, 6-(1-Methyl-4-piperidyl)-2-oxo-N-(4-phenylbutyl)-1,3-benzoxazole-3-carboxamide]: the IC50 (in general, the concentration at which inhibition is half-maximal) on AC (setting [5]) amounted to 0.129 ± 0.008 µM. Moreover, the half-life at 2 µM in data set [1] is 50 min. For the same molecule, the solubility (commonly the dissolved amount per volume that the medium holds) at 1 h in data set [2] was 120 µM (≈ 48.9 µg/mL). Further, the half-life at 1 h, 4.6 µM in data set [3] was 40 min.

On to `CC(C)CNC(=O)n1c(=O)oc2cc(C3CCCN(C)C3)ccc21` (racemic) [compound 27, (±)-N-Isobutyl-6-(1-methyl-3-piperidyl)-2-oxo-1,3-benzoxazole-3-carboxamide], for which the IC50 on AC (setting [5]) amounted to 1.75 ± 0.705 µM; on AC (supplementary csv, read-out: hAC, IC50), 1.62 ± 0.649 µM. In data set [1], the half-life at 2 µM is 50 min. This molecule also came in with a solubility at 1 h in data set [2] of over 250 µM. For the same molecule, in data set [3] (% remaining at 60 min), the “m-LM [% at 60 min]” value turned out to be 70%. For the same molecule, in data set [3], the half-life at 4.6 μM was over 60 min.

Regarding `CCN1CCC(c2ccc3c(c2)oc(=O)n3C(=O)NCCCCc2ccccc2)CC1` [22f, 6-(1-Ethyl-4-piperidyl)-2-oxo-N-(4-phenylbutyl)-1,3-benzoxazole-3-carboxamide], the IC50 at AC (setting [5]) was determined as 0.092 ± 0.043 µM. For the same molecule, in data set [1], the half-life at 2 µM came out at 50 min. This molecule came in with a solubility at 1 h in data set [2] of 198 µM (≈ 83.5 µg/mL). Moreover, the half-life at 1 h, 4.6 µM in data set [3] was 60 min.

As to `O=C(NCCCCc1ccccc1)n1c(=O)oc2ccncc21` [8a, 2-Oxo-N-(4-phenylbutyl)oxazolo[4,5-c]pyridine-3-carboxamide], in data set [4], the half-life at 1 μM is under 15 min. Moreover, the IC50 at AC (read-out: hAC IC50) worked out at 0.006 µM.

`O=C(NCCCCc1ccccc1)n1c(=O)oc2cc(C3CCN(CC(F)F)CC3)ccc21` [22r, 6-[1-(2,2-Difluoroethyl)-4-piperidyl]-2-oxo-N-(4-phenylbutyl)-1,3-benzoxazole-3-carboxamide]: on AC (setting [5]), the IC50 is 0.095 ± 0.03 µM. Besides, the half-life at 2 µM in data set [1] was found to be 50 min. Besides, in data set [2], the solubility at 1 h was under 1 µM. For the same molecule, the half-life at 1 h, 4.6 µM in data set [3] was found to be 20 min.

For the molecule `CC(=O)N1CCC(c2ccc3c(c2)oc(=O)n3C(=O)NCCCCc2ccccc2)CC1` [22i, 6-(1-Acetyl-4-piperidyl)-2-oxo-N-(4-phenylbutyl)-1,3-benzoxazole-3-carboxamide], the IC50 at AC (setting [5]) is 0.064 ± 0.029 µM. Further, the half-life at 2 µM in data set [1] turned out to be 30 min. This molecule came in with a solubility at 1 h in data set [2] of under 1 µM. For the same molecule, the half-life at 1 h, 4.6 µM in data set [3] turned out to be 60 min.

As for `CN1CCC(c2ccc3c(c2)oc(=O)n3C(=O)NCCOCc2ccccc2)CC1` [22j, N-(2-Benzyloxyethyl)-6-(1-methyl-4-piperidyl)-2-oxo-1,3-benzoxazole-3-carboxamide], the IC50 at AC (setting [5]) turned out to be 0.215 ± 0.013 µM. In data set [1], the half-life at 2 µM turned out to be 40 min. The concentration in solution in data set [2] (solubility at 1 h) was 73 µM (≈ 29.9 µg/mL). In addition, the half-life at 1 h, 4.6 µM in data set [3] worked out at 30 min.

As to `CN1CCN(c2ccc3c(c2)oc(=O)n3C(=O)NCCCCc2ccccc2)CC1=O` [23j, 6-(4-Methyl-3-oxo-piperazin-1-yl)-2-oxo-N-(4-phenylbutyl)-1,3-benzoxazole-3-carboxamide], on AC (setting [5]), the IC50 stood at 0.092 ± 0.026 µM. Also, the half-life at 2 µM in data set [1] was found to be 20 min. Also, in data set [2], the solubility at 1 h was under 1 µM. For the same molecule, the half-life at 1 h, 4.6 µM in data set [3] amounted to 30 min.

As for `CCN1CCN(c2ccc3c(c2)oc(=O)n3C(=O)NCCCCc2ccccc2)CC1` [23g, 6-(4-Ethylpiperazin-1-yl)-2-oxo-N-(4-phenylbutyl)-1,3-benzoxazole-3-carboxamide], the IC50 on AC (setting [5]) was found to be 0.056 ± 0.006 µM. The “fold more potent than 23e (hAC)” value on AC (vs 23e hAC IC50 = 0.363 μM) is about 7 fold. The half-life at 2 μM in data set [1] was under 5 min. The solubility at 1 h in data set [2] was under 1 µM. For the same molecule, the half-life at 4.6 μM in data set [3] was under 5 min.
